Several values for one entry are separate records, joined by “and”; a condition that tells them apart may be missing. Identical values can stand only once.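 All cell lines were grown in 96-well plates and treated with compound for 48 hours. The concentration for 50% growth inhibition is given as GI50. TGI: total growth inhibition.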
Assays:
Assay in all cases: NCI anticancer screen, dose series, 48 h
SF-268 CNS = tested on: SF-268 CNS
UO-31 renal = tested on: UO-31 renal
NCI-H226 lung = tested on: NCI-H226 lung
ACHN renal = tested on: ACHN renal
K-562 leukemia = tested on: K-562 leukemia
HOP-92 NSCLC = tested on: HOP-92 NSCLC
MDA-MB-231 breast = tested on: MDA-MB-231 breast
UACC-62 melanoma = tested on: UACC-62 melanoma
786-0 renal = tested on: 786-0 renal
NCI/ADR-RES ovarian = tested on: NCI/ADR-RES ovarian

Compound | TGI (SF-268 CNS) | TGI (UO-31 renal) | TGI (NCI-H226 lung) [µM] | TGI (ACHN renal) | TGI (K-562 leukemia) | TGI (HOP-92 NSCLC) | TGI (MDA-MB-231 breast) [µM] | TGI (UACC-62 melanoma) | TGI (786-0 renal) | GI50 (SF-268 CNS) [µM] | GI50 (UO-31 renal) [µM] | GI50 (ACHN renal) [µM] | GI50 (NCI/ADR-RES ovarian) [µM] | TGI (NCI/ADR-RES ovarian) [µM] | GI50 (K-562 leukemia) [µM] | GI50 (UACC-62 melanoma) [µM] | GI50 (786-0 renal) [µM] | GI50 (MDA-MB-231 breast) [µM] | GI50 (HOP-92 NSCLC) [µM] | GI50 (NCI-H226 lung) [µM]
C[C@]12CC[C@H](O)CC1=CC[C@@H]1C2CC[C@]2(C)c3nn(-c4ccc(F)cc4)nc3CC12 (some centres undefined) | > 100 µM | > 100 µM | > 100 | > 100 µM | > 100 µM | > 100 µM | > 100 | > 100 µM | > 100 µM | – | – | – | – | – | – | – | – | – | – | –
Fc1ccc(Oc2nccc(-c3c(-c4ccc(F)cc4)ncn3C3CCNCC3)n2)cc1 | > 25 µM | > 25 µM | – | > 25 µM | > 25 µM | – | > 9.34 | > 25 µM | > 25 µM | > 25 | 10.9 | > 25 | > 25 | > 25 | > 25 | > 20.8 | > 25 | – | – | –
COC1/C(=C\C(=O)OC(C)(C)C)c2ccccc2N1C(C)=O (centres undefined) | – | > 100 µM | – | > 100 µM | > 100 µM | – | – | > 100 µM | > 100 µM | – | – | – | – | – | – | – | – | – | – | –
CC1(CO)OC1COCc1ccccc1 (centres undefined) | > 100 µM | > 100 µM | > 100 | > 100 µM | > 100 µM | > 100 µM | – | > 100 µM | > 100 µM | – | – | – | – | – | – | – | – | – | – | –
Nc1nc(Nc2ccc3c(c2)CC[C@@H](N2CCCC2)CC3)nn1-c1cc2c(nn1)-c1ccccc1CCC2 | 3.26 µM | 2.19 µM | – | 2.11 µM | – | – | 3.55 | 3.67 µM | 3.28 µM | 1.44 | 0.936 | 0.878 | – | – | – | 1.89 | 1.55 | 1.82 | – | –
CN(C)NC1=NS(=O)(=O)c2cc3c(cc2S1)N(N(C)C)C(=O)c1cc2c(cc1N(N(C)C)C3=O)SC(NN(C)C)=NS2(=O)=O | > 10 µM | > 10 µM | > 10 | > 10 µM | > 10 µM | > 10 µM | – | – | > 10 µM | – | – | – | – | > 10 | – | – | – | – | – | –
Cc1nc2c(=O)[nH]c(=O)n(C)c2[nH]c1=O | > 100 µM | > 100 µM | > 100 | > 100 µM | > 100 µM | > 100 µM | – | > 100 µM | > 100 µM | – | – | – | – | – | – | – | – | – | – | –
COc1ccc2c(c1)nc(N)c1c3cc(OC)c(OC)cc3cn21 | 17.5 µM | 20.5 µM | 16.8 | 16.3 µM | 11.7 µM | 23.9 µM | 17.4 | 21.7 µM | 11.9 µM | – | 2.51 | < 0.01 | – | – | < 0.01 | < 0.01 | 0.205 | 0.345 | 5.09 | –
O=C(O)c1c2c(c(C(=O)O)c3ccccc13)-c1ccccc1-2 | > 100 µM | > 100 µM | > 100 | > 100 µM | > 100 µM | 71.9 µM | – | 65.9 µM | > 100 µM | – | – | – | – | – | – | – | – | – | – | –
CC(=O)OCC1OC(OC2CC3C(C)(C)C(OC(C)=O)CC[C@]3(C)C3CCC45CC4(CC[C@H]5C(C)CC(O)[C@@H](O)C(C)(C)O)[C@]23C)C(O)C(O)C1O (some centres undefined) | 14.6 µM and 28.8 µM | 12.3 µM and 32.5 µM | 13.3 | 14.3 µM and 29 µM | 13.8 µM and 18.7 µM | 13.1 µM and 11.7 µM | – | 12.2 µM and 16.5 µM | 14.2 µM and 21.9 µM | 15.4 | 18.5 | 15 | – | – | 3.47 | 4.9 | – | – | 4.05 | –
Cc1cccc(C)c1NC(=O)/C(Cl)=C(/Cl)C(=O)O | 32.6 µM | 21.7 µM | 27.4 | 29.4 µM | 17.4 µM | 30.3 µM | 41.7 | 20.6 µM | 31.3 µM | – | – | – | – | – | – | – | – | – | – | –
COc1cc2c(c(OC)c1OC)-c1ccc(SC)c(=O)cc1[C@@H](NC(=O)c1ccc(OC(C)=O)cc1)CC2 | 24.8 µM | 73 µM | 0.0528 | > 100 µM | 6.03 µM | 0.0311 µM | – | 26.9 µM | 12.9 µM | – | – | – | – | – | – | – | – | – | – | –
NCCCN(CCCN)CCCNCc1c2ccccc2c(CNCCCN(CCCN)CCCN)c2ccccc12 | 57.7 µM | > 100 µM | > 100 | 25.7 µM | > 100 µM | 89.1 µM | – | 21.5 µM | 23.4 µM | – | – | – | – | – | – | – | – | – | – | –
COc1ccc(C2S/C(=C\c3cc(OC)c(OC)c(OC)c3)C(=O)N2NC(=O)Cc2ccccc2)cc1 (centres undefined) | > 100 µM | > 100 µM | > 100 | > 100 µM | > 100 µM | > 100 µM | – | > 100 µM | > 100 µM | – | – | – | – | – | – | – | – | – | – | –
COC1/C=C\C=C(/C)C(=O)Nc2cc3nc4ccc(Br)cc4oc-3c(c2=O)CC(C)CC(OC)C(O)C(C)/C=C(\C)C1OC(N)=O (centres undefined) | 18.1 µM | 4.05 µM | 17.7 | 15.6 µM | 7.03 µM | 4.81 µM | 11.5 | – | 12 µM | – | – | 0.00459 | – | – | 0.000503 | 0.00162 | 0.00576 | 0.0321 | 0.00757 | –
C[C@@H]1O[C@@H](O[C@@H]2[C@@H](O)[C@H](OCCc3ccc(O)c(O)c3)O[C@H](COC(=O)/C=C/c3ccc(O)c(O)c3)[C@H]2O)[C@H](O)[C@H](O)[C@H]1O | – | > 100 µM | > 100 | > 100 µM | > 100 µM | – | > 100 | > 100 µM | > 100 µM | – | > 100 | > 100 | – | – | 36.7 | > 100 | 58.4 | > 100 | – | > 100
O=C(CNC(=O)OCc1ccccc1)Oc1ccccc1 | > 100 µM | > 100 µM | > 100 | > 100 µM | > 100 µM | > 100 µM | – | > 100 µM | > 100 µM | – | – | – | – | – | – | – | – | – | – | –
COc1ccc(C(=O)C(c2ccc(OC)cc2)C2(O)C(=O)Nc3c(C)cc(Cl)cc32)cc1 (centres undefined) | > 100 µM | > 100 µM | > 100 | > 100 µM | > 100 µM | > 100 µM | – | 54.2 µM | > 100 µM | – | – | – | – | – | – | – | – | – | – | –
CCCCCNC(=O)[C@@H]1CCCN2C(=O)CC[C@H](NC(=O)[C@H](Cc3ccc(OP(=O)(O)O)cc3)NC(C)=O)C(=O)N12 | > 25 µM | > 25 µM | > 25 | > 25 µM | > 25 µM | – | > 25 | > 25 µM | > 25 µM | > 25 | > 25 | > 25 | > 25 | > 25 | > 25 | > 25 | > 25 | > 25 | – | > 25
CCOC(=O)/C(=C\c1ccc(OCc2ccccc2)c(OC)c1)C(=O)c1ccccc1 | – | 32.4 µM | 42.5 | 34.8 µM | 48.3 µM | – | – | 48.4 µM | 37.7 µM | – | – | – | – | – | – | – | – | – | – | –

From PubChem BioAssay (NCI)
